Assay results as given in patent US11299488B2, “Five membered-aminoheterocycle and 5,6-or 6,6-membered bicyclic aminoheterocyclic inhibitors of rock for the treatment of heart failure” (BRISTOL-MYERS SQUIBB COMPANY, priority 2017, dated 2022).

Test system: IL-1 beta-induced coronary stenosis
Experiment: not given
Details: long term treatment; cited from earlier work

Row | Compound | coronary constrictive remodeling | coronary stenosis
1 | O=S(=O)(c1cccc2cnccc12)N1CCCNCC1 [fasudil] | promote a regression of coronary constrictive remodeling | progressively reduce coronary stenosis

Target: ROCK2 (Homo sapiens (Human), UniProt O75116)
Experiment: ROCK assay (Caliper LABCHIP peptide phosphorylation, 5 μM ATP)
Format: biochemical
Details: not given
Procedure: The effectiveness of compounds of the present invention as ROCK inhibitors can be determined in a 30 μL assay containing 20 mM HEPES, pH 7.5, 20 mM MgCl2, 0.015% Brij-35, 4 mM DTT, 5 μM ATP and 1.5 μM peptide substrate (FITC-AHA-AKRRRLSSLRA-OH) (SEQ ID No. 1). Compounds were dissolved in DMSO so that the final concentration of DMSO was <2%, and the reaction was initiated with Rho kinase variants. After incubation, the reaction was terminated by the addition of EDTA and the phosphorylated and non-phosphorylated peptides separated using a LABCHIP® 3000 Reader (Caliper Life Sciences). […] Compounds were tested in dose-response format, and the inhibition of kinase activity was calculated at each concentration of compound. The inhibition data were fit using a curve-fitting program to determine the IC50; i.e., the concentration of compound required to inhibit 50% of kinase activity. Representative Examples were tested in the ROCK assay described above and found having ROCK inhibitory activity. A range of ROCK inhibitory activity (IC50 values) of ≤50 μM (50000 nM) was observed. Table A below lists the ROCK IC50 values measured for the following examples.

ROCK2, sequence (O75116 whole entry, species assumed): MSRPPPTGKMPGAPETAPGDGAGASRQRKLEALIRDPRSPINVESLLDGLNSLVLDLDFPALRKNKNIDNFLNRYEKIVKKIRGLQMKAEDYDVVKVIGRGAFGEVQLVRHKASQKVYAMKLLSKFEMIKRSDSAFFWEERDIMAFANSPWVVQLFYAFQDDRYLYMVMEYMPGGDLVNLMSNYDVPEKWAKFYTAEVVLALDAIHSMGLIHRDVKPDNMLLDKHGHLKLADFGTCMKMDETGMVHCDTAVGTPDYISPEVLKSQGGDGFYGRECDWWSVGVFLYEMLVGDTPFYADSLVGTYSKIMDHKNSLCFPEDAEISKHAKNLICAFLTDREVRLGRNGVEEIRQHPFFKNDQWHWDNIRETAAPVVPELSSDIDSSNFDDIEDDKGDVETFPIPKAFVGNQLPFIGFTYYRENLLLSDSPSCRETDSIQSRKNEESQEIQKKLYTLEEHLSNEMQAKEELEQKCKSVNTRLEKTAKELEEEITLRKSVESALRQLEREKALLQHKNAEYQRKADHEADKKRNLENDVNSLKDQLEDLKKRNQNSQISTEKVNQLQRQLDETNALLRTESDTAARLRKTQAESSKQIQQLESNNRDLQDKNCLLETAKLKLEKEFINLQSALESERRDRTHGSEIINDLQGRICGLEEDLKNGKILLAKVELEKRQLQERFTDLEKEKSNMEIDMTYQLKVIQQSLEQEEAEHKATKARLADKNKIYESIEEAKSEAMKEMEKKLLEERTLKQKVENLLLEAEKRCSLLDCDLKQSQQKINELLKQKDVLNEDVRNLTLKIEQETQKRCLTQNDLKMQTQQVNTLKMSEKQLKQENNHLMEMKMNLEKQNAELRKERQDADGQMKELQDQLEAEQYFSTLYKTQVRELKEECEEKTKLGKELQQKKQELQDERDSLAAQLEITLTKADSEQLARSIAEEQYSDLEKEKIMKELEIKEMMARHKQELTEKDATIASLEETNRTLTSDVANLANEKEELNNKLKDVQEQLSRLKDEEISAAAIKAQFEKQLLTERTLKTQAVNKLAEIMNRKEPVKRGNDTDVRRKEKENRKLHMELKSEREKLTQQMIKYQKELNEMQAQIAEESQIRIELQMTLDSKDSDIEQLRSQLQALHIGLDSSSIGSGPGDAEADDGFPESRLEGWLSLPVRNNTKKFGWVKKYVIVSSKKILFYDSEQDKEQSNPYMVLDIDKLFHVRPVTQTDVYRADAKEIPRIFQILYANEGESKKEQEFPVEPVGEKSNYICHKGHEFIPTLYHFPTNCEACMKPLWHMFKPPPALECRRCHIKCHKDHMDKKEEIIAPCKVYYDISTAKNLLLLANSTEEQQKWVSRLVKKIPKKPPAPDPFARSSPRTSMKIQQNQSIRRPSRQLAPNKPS

Row | IC50 | Compound
2 | 0.496 µM | [H][C@]1(Oc2ncccc2C(N)=O)C[C@]2(C[C@@H](Nc3nccc(N4CCCC(F)C4)n3)C2)C1 (stereo partly drawn) [Example 41, 2-(((2S,4s,6S)-6-((4-(3-fluoro-piperidin-1-yl)pyrimidin-2-yl)amino)spiro [3.3]heptan-2-yl)oxy) nicotinamide]
3 | 2.03 µM | [H][C@]1(Oc2ncccc2C(N)=O)C[C@@]2(C[C@H](Nc3nccc(N4CC[C@H](F)C4)n3)C2)C1 (stereo partly drawn) [Example 42, 2-(((2S,4r,6S)-6-((4-((S)-3-fluoro-pyrrolidin-1-yl)pyrimidin-2-yl)amino)spiro [3.3]heptan-2-yl)oxy) nicotinamide]
4 | 0.678 µM | [H][C@]1(Oc2ncccc2C(N)=O)C[C@]2(C[C@@H](Nc3nccc(NCC(C)(C)CO)n3)C2)C1 (stereo partly drawn) [Example 45, 2-(((2S,4s,6S)-6-((4-((3-hydroxy-2,2-dimethyl-propyl)amino)pyrimidin-2-yl)amino)spiro[3.3]heptan-2-yl)oxy) nicotinamide]
5 | 0.557 µM | [H][C@]1(Oc2ncccc2C(N)=O)C[C@]2(C[C@@H](Nc3nccc(-c4ccncc4)n3)C2)C1 (stereo partly drawn) [Example 46, 2-(((2S,4s,6S)-6-((4-(pyridin-4-yl)pyrimidin-2-yl)amino)spiro[3.3]heptan-2-yl)oxy)nicotinamide]
6 | 0.211 µM | [H][C@]1(Oc2ncccc2C(N)=O)C[C@]2(C[C@@H](Nc3nccc(-c4ccc(F)cc4)n3)C2)C1 (stereo partly drawn) [Example 47, 2-(((2S,4s,6S)-6-((4-(4-fluorophenyl)pyrimidin-2-yl)amino)spiro[3.3]heptan-2-yl)oxy) nicotinamide]
7 | 0.149 µM | [H][C@]1(Oc2ncccc2C(N)=O)C[C@]2(C[C@@H](Nc3nccc(-c4cccc(F)c4)n3)C2)C1 (stereo partly drawn) [Example 49, 2-(((2S,4s,6S)-6-((4-(3-fluorophenyl)pyrimidin-2-yl)amino)spiro[3.3]heptan-2-yl)oxy) nicotinamide]
8 | 0.414 µM | [H][C@]1(Oc2ncccc2C(N)=O)C[C@]2(C[C@@H](Nc3nccc(-c4cccnc4)n3)C2)C1 (stereo partly drawn) [Example 51, 2-(((2S,4s,6S)-6-((4-(pyridin-3-yl)pyrimidin-2-yl)amino)spiro[3.3]heptan-2-yl)oxy) nicotinamide]
9 | 0.874 µM | [H][C@]1(Oc2ncccc2C(N)=O)C[C@]2(C[C@@H](Nc3nccc(-c4cnn(C)c4)n3)C2)C1 (stereo partly drawn) [Example 54, 2-(((2S,4s,6S)-6-((4-(1-methyl-1H-pyrazol-4-yl)pyrimidin-2-yl)amino)spiro[3.3]heptan-2-yl)oxy) nicotinamide]
10 | 0.398 µM | [H][C@]1(Oc2ncccc2C(N)=O)C[C@]2(C[C@@H](Nc3ccnc(N4CCC(F)(F)C4)n3)C2)C1 (stereo partly drawn) [Example 62, 2-(((2S,4s,6S)-6-((2-(3,3-difluoro-pyrrolidin-1-yl)pyrimidin-4-yl)amino)spiro[3.3]heptan-2-yl)oxy) nicotinamide]
11 | 0.733 µM | [H][C@]1(Oc2ncccc2C(N)=O)C[C@]2(C[C@@H](Nc3ccnc(N4CCC(F)CC4)n3)C2)C1 (stereo partly drawn) [Example 63, 2-(((2S,4s,6S)-6-((2-(4-fluoro-piperidin-1-yl)pyrimidin-4-yl)amino)spiro [3.3]heptan-2-yl)oxy) nicotinamide]
12 | 0.964 µM | [H][C@]1(Oc2ncccc2C(N)=O)C[C@]2(C[C@@H](Nc3ccnc(N4CCC(C(F)(F)F)CC4)n3)C2)C1 (stereo partly drawn) [Example 65, 2-(((2S,4s,6S)-6-((2-(4-(trifluoro-methyl)piperidin-1-yl)pyrimidin-4-yl)amino)spiro[3.3]heptan-2-yl)oxy) nicotinamide]
13 | 1.07 µM | [H][C@]1(Oc2ncccc2C(N)=O)C[C@]2(C[C@@H](Nc3ccnc(-c4cccc(C#N)c4)n3)C2)C1 (stereo partly drawn) [Example 66, 2-(((2S,4s,6S)-6-((2-(3-cyanophenyl)pyrimidin-4-yl)amino)spiro[3.3]heptan-2-yl)oxy)nicotinamide]
14 | 1.17 µM | [H][C@]1(Oc2ncccc2C(N)=O)C[C@]2(C[C@@H](Nc3ccnc(-c4cccc(C(=O)N(C)C)c4)n3)C2)C1 (stereo partly drawn) [Example 67, 2-(((2S,4s,6S)-6-((2-(3-(dimethyl-carbamoyl)phenyl)pyrimidin-4-yl)amino)spiro[3.3]heptan-2-yl)oxy) nicotinamide]
15 | 2.24 µM | [H][C@]1(Oc2ncccc2C(N)=O)C[C@]2(C[C@@H](Nc3ccnc(-c4cccc(F)c4)n3)C2)C1 (stereo partly drawn) [Example 70, 2-(((2S,4s,6S)-6-((2-(3-fluorophenyl)pyrimidin-4-yl)amino)spiro[3.3]heptan-2-yl)oxy) nicotinamide]

The next lines start with the molecule.

Row | Compound | IC50
16 | [H][C@]1(Oc2ncccc2C(N)=O)C[C@]2(C[C@@H](Nc3nccc(N4CCC(C(F)(F)F)CC4)n3)C2)C1 (stereo partly drawn) [Example 43, 2-(((2S,4s,6S)-6-((4-(4-(trifluoro-methyl)piperidin-1-yl)pyrimidin-2-yl)amino)spiro[3.3]heptan-2-yl)oxy) nicotinainide] | 0.165 µM
17 | [H][C@]1(Oc2ncccc2C(N)=O)C[C@]2(C[C@@H](Nc3nccc(NC4CCC(F)(F)CC4)n3)C2)C1 (stereo partly drawn) [Example 44, 2-(((2S,4s,6S)-6-((4-((4,4-difluoro-cyclohexyl)amino)pyrimidin-2-yl)amino)spiro[3.3]heptan-2-yl)oxy) nicotinamide] | 0.489 µM
18 | [H][C@]1(Oc2ncccc2C(N)=O)C[C@]2(C[C@@H](Nc3nccc(-c4ccc(C#N)cc4)n3)C2)C1 (stereo partly drawn) [Example 48, 2-(((2S,4s,6S)-6-((4-(4-cyanophenyl)pyrimidin-2-yl)amino)spiro[3.3]heptan-2-yl)oxy) nicotinamide] | 0.204 µM
19 | [H][C@]1(Oc2ncccc2C(N)=O)C[C@]2(C[C@@H](Nc3nccc(-c4ccc(C(=O)N(C)C)cc4)n3)C2)C1 (stereo partly drawn) [Example 50, 2-(((2S,4s,6S)-6-((4-(4-(dimethyl-carbamoyl)phenyl)pyrimidin-2-yl)amino)spiro[3.3]heptan-2-yl)oxy) nicotinamide] | 1.1 µM
20 | [H][C@]1(Oc2ncccc2C(N)=O)C[C@]2(C[C@@H](Nc3nccc(-c4cccc(C#N)c4)n3)C2)C1 (stereo partly drawn) [Example 52, 2-(((2S,4s,6S)-6-((4-(3-cyanophenyl)pyrimidin-2-yl)amino)spiro[3.3]heptan-2-yl)oxy) nicotinamide] | 0.087 µM
21 | [H][C@]1(Oc2ncccc2C(N)=O)C[C@]2(C[C@@H](Nc3nccc(-c4cccc(C(=O)N(C)C)c4)n3)C2)C1 (stereo partly drawn) [Example 53, 2-(((2S,4s,6S)-6-((4-(3-(dimethyl-carbamoyl)phenyl)pyrimidin-2-yl)amino)spiro[3.3]heptan-2-yl)oxy) nicotinamide] | 0.284 µM
22 | [H][C@]1(Oc2ncccc2C(N)=O)C[C@]2(C[C@@H](Nc3ccnc(N4CCCC(F)(F)C4)n3)C2)C1 (stereo partly drawn) [Example 60, 2-(((2S,4s,6S)-6-((2-(3,3-difluoropiperidin-1-yl)pyrimidin-4-yl)amino)spiro[3.3]heptan-2-yl)oxy)nicotinamide] | 0.22 µM
23 | [H][C@]1(Oc2ncccc2C(N)=O)C[C@]2(C[C@@H](Nc3ccnc(N4CCC(F)(F)CC4)n3)C2)C1 (stereo partly drawn) [Example 61, 2-(((2S,4s,6S)-6-((2-(4,4-difluoro-piperidin-1-yl)pyrimidin-4-yl)amino)spiro[3.3]heptan-2-yl)oxy) nicotinamide] | 0.334 µM
24 | [H][C@]1(Oc2ncccc2C(N)=O)C[C@]2(C[C@@H](Nc3ccnc(N4CCCC(F)C4)n3)C2)C1 (stereo partly drawn) [Example 64, 2-(((2S,4s,6S)-6-((2-(3-fluoro-piperidin-1-yl)pyrimidin-4-yl)amino)spiro [3.3]heptan-2-yl)oxy) nicotinamide] | 0.89 µM
25 | [H][C@]1(Oc2ncccc2C(N)=O)C[C@]2(C[C@@H](Nc3ccnc(N4CC(F)(F)C4)n3)C2)C1 (stereo partly drawn) [Example 68, 2-(((2S,4s,6S)-6-((2-(3,3-difluoro-azetidin-1-yl)pyrimidin-4-yl)amino)spiro[3.3]heptan-2-yl)oxy) nicotinamide] | 1.3 µM

Test system: congestive heart failure in Dahl salt-sensitive rats
Experiment: not given
Details: rat, in vivo; cited from earlier work

Row | Compound | ventricular hypertrophy, fibrosis and function
26 | C[C@@H](N)[C@H]1CC[C@H](C(=O)Nc2ccncc2)CC1 [Example Y-27632, Y-27632] | improve ventricular hypertrophy, fibrosis and function

Test system: neointimal formation
Experiment: not given
Details: rats, similar model to balloon injury; cited from earlier work

Row | Compound | neointimal formation
27 | C[C@@H](N)[C@H]1CC[C@H](C(=O)Nc2ccncc2)CC1 [Example Y-27632, Y-27632] | inhibited neointimal formation

Test system: spontaneously hypertensive rat, renal hypertensive rat and deoxycortisone acetate salt hypertensive rat models
Experiment: not given
Details: control rats; cited from earlier work

Row | Compound | blood pressure in control rats
28 | C[C@@H](N)[C@H]1CC[C@H](C(=O)Nc2ccncc2)CC1 [Example Y-27632, Y-27632] | only a minor effect on blood pressure

Same assay, conditions: three rat models of hypertension; cited from earlier work

Row | Compound | blood pressure
29 | C[C@@H](N)[C@H]1CC[C@H](C(=O)Nc2ccncc2)CC1 [Example Y-27632, Y-27632] | significantly decrease blood pressure

Test system: rat stroke model
Experiment: not given
Details: in vivo; cited from earlier work

Row | Compound | infarct size and neurologic deficit
30 | O=S(=O)(c1cccc2cnccc12)N1CCCNCC1 [fasudil] | reduce both the infarct size and neurologic deficit
